We go through 15 compounds from patent US7361783B2, “(2S)-2-ethylphenylpropionic acid derivative” (Kyorin Pharmaceutical Co., Ltd., priority 2002, dated 2008).

The target in the first data set is T1, human peroxisome proliferator-activated receptor (PPAR) α (Homo sapiens, UniProt Q07869).
T1 construct: expressed in transfected cells; host or cells: CHO cells
T1 sequence (Q07869 239-466 limits assumed): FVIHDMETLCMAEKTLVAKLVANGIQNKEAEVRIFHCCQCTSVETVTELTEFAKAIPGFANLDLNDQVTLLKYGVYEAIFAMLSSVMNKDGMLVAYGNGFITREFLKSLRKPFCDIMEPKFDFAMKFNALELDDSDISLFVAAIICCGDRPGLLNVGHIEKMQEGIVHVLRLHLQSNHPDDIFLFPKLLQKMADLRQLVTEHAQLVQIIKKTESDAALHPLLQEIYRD
Description: Test of transcriptional activation on human PPARα (luciferase reporter, transfected CHO cells). In kind it is cell-based. Conditions: CHO cells cotransfected with yeast DNA-binding domain/human PPARα ligand-binding domain fusion and reporter plasmid; luciferase after 24 hours, corrected with Renilla internal standard. As for the experimental part:
Test of Transcriptional Activation on Human Peroxisome Proliferator-activated Receptor (PPAR) α
The CHO cells were cultured in a Dulbecco-modified Eagle's medium containing 10% delipid fetal calf serum (FCS/DMEM). To these cells were cotransfected receptor plasmid and its reporter plasmid (STRATAGENE Corp.) that express fused protein of DNA-binding domain being transcription factor of yeast with ligand-binding domain of human PPARα (Biochemistry, 1993, 32, 5598), and luciferase plasmid of Renilla (Promega Corp.) for internal standard, using lipofectamine. Thereafter, testing compound or (8S)-HETE being a control compound was added in the 10% SFCS/DMEM and both luciferase activities were measured after 24 hours, which were corrected with internal standard.
For the compound `CCCCC/C=C\C/C=C\C=C\[C@@H](O)C/C=C\CCCC(=O)O` [(8S)-HETE, reference compound], the EC50 was found to be 1300 nM.
The compound `CC[C@@H](Cc1ccc(OC)c(C(=O)NCc2ccc(Oc3ccc(F)c(F)c3)cc2)c1)C(=O)O` [Example 9, (2S)-2-{[3-(N-{[4-(3,4-Difluorophenoxy)phenyl]methyl}carbamoyl)-4-methoxyphenyl]methyl}butyric acid] showed an EC50 of 1.6 nM.
The same measure, in the same setting: to `CC[C@@H](Cc1ccc(OC)c(C(=O)NCc2ccc(Oc3cc(F)cc(F)c3)cc2)c1)C(=O)O` [Example 10, (2S)-2-{[3-(N-{[4-(3,5-Difluorophenoxy)phenyl]methyl}carbamoyl)-4-methoxyphenyl]methyl}butyric acid] belongs 2.9 nM.
Same read-out and setting: the result for `CC[C@@H](Cc1ccc(OC)c(C(=O)NCc2ccc(Oc3cc(F)c(F)c(F)c3)cc2)c1)C(=O)OC` [Example 16, Methyl (2S)-2-{[4-methoxy-3-(N-{[4-(3,4,5-trifluorophenoxy)phenyl]methyl}carbamoyl)phenyl]methyl}butyrate] reads 2.3 nM.

In a further data set the test system is male Beagle dog. As to the kind of experiment: Test of lipid-lowering effect in Beagle dog. In kind it is in vivo. Particulars: serum; oral 0.03 mg/kg/day once a day for 14 days; before vs after administration. On the procedure: Test of Lipid-lowering Effect
To a 27-month old male Beagle dog (HRA Beagle; Convance Research Products Inc.) was orally administered testing compound (0.3 mg/mL) in weak aqueous alkali solution sealed in a gelatin capsule once a day for continuous 14 days (0.03 mg/kg/day). For the feed during the period of administration, standard diet (Canine diet, PMI nutrition International Inc.) was used. Blood was collected before start of administration and after administration for 14 days, and total cholesterol value in serum and triglyceride value were measured by enzymic method [Cholesterol E-Test Wako (Wako Pure Chemical Industries,Ltd.), Liquitec TGII reagent 1, 2 (Rosch) and standard serum for measurement of lipid (Rosch) were used]. The decreasing rates of total cholesterol value and triglyceride value were calculated, respectively, according to following calculation formula. Decreasing rate (%)=(Measured value before administration−Measured value after administration)/Measured value before administration×100 [Result]
In the case of `CC[C@@H](Cc1ccc(OC)c(C(=O)NCc2ccc(Oc3cc(F)cc(F)c3)cc2)c1)C(=O)O` [Example 10, (2S)-2-{[3-(N-{[4-(3,5-Difluorophenoxy)phenyl]methyl}carbamoyl)-4-methoxyphenyl]methyl}butyric acid], the “Decreasing rate Total cholesterol” value is 28% and the “Decreasing rate Triglyceride” value stood at 50%.

System in a further data set: not given
Assay: not given
Conditions: not given
`CC[C@@H](Cc1ccc(OC)c(C(=O)NCc2ccc(Oc3ccc(F)c(F)c3)cc2)c1)C(=O)O` [Example 9, (2S)-2-{[3-(N-{[4-(3,4-Difluorophenoxy)phenyl]methyl}carbamoyl)-4-methoxyphenyl]methyl}butyric acid] had a melting point of 118 to 120 °C.
The same measure, in the same setting: to `CC[C@@H](Cc1ccc(OC)c(C(=O)NCc2ccc(Oc3cc(F)cc(F)c3)cc2)c1)C(=O)O` [Example 10, (2S)-2-{[3-(N-{[4-(3,5-Difluorophenoxy)phenyl]methyl}carbamoyl)-4-methoxyphenyl]methyl}butyric acid] belongs 140 to 142 °C.
`CC[C@@H](Cc1ccc(OC)c(C(=O)NCc2ccc(Oc3cccc(F)c3F)cc2)c1)C(=O)O` [Example 11, (2S)-2-{[3-(N-{[4-(2,3-Difluorophenoxy)phenyl]methyl}carbamoyl)-4-methoxyphenyl]methyl}butyric acid]: the melting point fell in the range of 93 to 95 °C.
On the same count and under the same terms, to `CC[C@@H](Cc1ccc(OC)c(C(=O)NCc2ccc(Oc3cc(F)ccc3F)cc2)c1)C(=O)O` [Example 13, (2S)-2-{[3-(N-{[4-(2,5-Difluorophenoxy)phenyl]methyl}carbamoyl)-4-methoxyphenyl]methyl}butyric acid] belongs 116 to 118 °C.
On the same count and under the same terms, to `CC[C@@H](Cc1ccc(OC)c(C(=O)NCc2ccc(Oc3c(F)cccc3F)cc2)c1)C(=O)O` [Example 14, (2S)-2-{[3-(N-{[4-(2,6-Difluorophenoxy)phenyl]methyl}carbamoyl)-4-methoxyphenyl]methyl}butyric acid] belongs 106 to 108 °C; to `CC[C@@H](Cc1ccc(OC)c(C(=O)NCc2ccc(Oc3cc(C(F)(F)F)cc(C(F)(F)F)c3)cc2)c1)C(=O)O` [Example 15, (2S)-2-({3-[N-({4-[3,5-Bis(trifluoromethyl)phenoxy]phenyl}methyl)carbamoyl]-4-methoxyphenyl}methyl)butyric acid], 125 to 127 °C.
Consider `CC[C@@H](Cc1ccc(OC)c(C(=O)NCc2ccc(Oc3cc(F)c(F)c(F)c3)cc2)c1)C(=O)O` [Example 17, (2S)-2-{[4-Methoxy-3-(N-{[4-(3,4,5-trifluorophenoxy)phenyl]methyl}carbamoyl)phenyl]methyl}butyric acid], for which the melting point was in the range of 133 to 135 °C.
The same measure, in the same setting: the result for `CC[C@@H](Cc1ccc(OC)c(C(=O)NCc2ccc(Oc3cc(Cl)cc(Cl)c3)cc2)c1)C(=O)O` [Example 30, (2S)-2-{[4-Methoxy-3-(N-{[4-(3,5-dichlorophenoxy)phenyl]methyl}carbamoyl)phenyl]methyl}butyric Acid] reads 145 to 148 °C; that for `CC[C@@H](Cc1ccc(OC)c(C(=O)NCc2ccc(Oc3ccc(Cl)c(Cl)c3)cc2)c1)C(=O)O` [Example 31, (2S)-2-{[4-Methoxy-3-(N-{[4-(3,4-dichlorophenoxy)phenyl]methyl}carbamoyl)phenyl]methyl}butyric acid], 139 to 141 °C; that for `CC[C@@H](Cc1ccc(OC)c(C(=O)NCc2ccc(Oc3ccc(Cl)c(F)c3)cc2)c1)C(=O)O` [Example 32, (2S)-2-{[4-Methoxy-3-(N-{[4-(4-chloro-3-fluorophenoxy)phenyl]methyl}carbamoyl)phenyl]methyl}butyric acid], 117 to 118 °C.
`CC[C@@H](Cc1ccc(OC)c(C(=O)NCc2ccc(Oc3ccc(Br)c(Cl)c3)cc2)c1)C(=O)O` [Example 33, (2S)-2-{[4-Methoxy-3-(N-{[4-(4-bromo-3-chlorophenoxy)phenyl]methyl}carbamoyl)phenyl]methyl}butyric acid] displayed a melting point of 140 to 142 °C.
The same measure, in the same setting: the result for `CC[C@@H](Cc1ccc(OC)c(C(=O)NCc2ccc(Oc3ccc(Cl)c(C(F)(F)F)c3)cc2)c1)C(=O)O` [Example 34, (2S)-2-{[4-Methoxy-3-(N-{[4-(4-chloro-3-trifluoromethylphenoxy)phenyl]methyl}carbamoyl)phenyl]methyl}butyric acid] reads 141 to 142 °C; that for `CC[C@@H](Cc1ccc(OC)c(C(=O)NCc2ccc(Oc3cc(F)cc(C(F)(F)F)c3)cc2)c1)C(=O)O` [Example 35, (2S)-2-{[4-Methoxy-3-(N-{[4-(3-fluoro-5-trifluoromethylphenoxy)phenyl]methyl}carbamoyl)phenyl]methyl}butyric acid], 125 to 128 °C.
